Assay results taken from patent US7569221B2, “Compositions and methods for identifying agents that alter expression of survivin” (Health Research, Inc., priority 2006, dated 2009).

How the values were obtained:
human survivin promoter [1] = assay: in vivo luciferase imaging of SPlucTg mice during liver injury and regeneration after CCl4; set-up: species or system mouse
Procedure: FIG. 20 is a photographic representation (obtained using the XENOGEN IVIS® in vivo Imaging System) of dose-dependent transient turn-on of survivin promoter activity during SPlucTg mouse liver injury and regeneration using carbon tetrachloride (CCl4): A 10% of CCl4 solution formulated in corn oil was prepared. The following dose was injected intraperitoneally on Day 0: 50 μl/25 g (panel A), 100 μl/25 g (panel B), 200 μl/25 g (panel C) and 300 μl/25 g (panel D). The in vivo imaging was monitored on Day 1 (24 h), Day 2 (48 h), Day 3 (72 h), Day 4 (96 h) and Day 6 (144 h) after administration of CCl4 (arrows indicate luciferase expression). […]
(§1) Using a survivin-specific monoclonal antibody termed 12C4, we have recently shown that testis is the only human organ that highly expresses survivin (60-70% of spermatogonia) (19). Consistent with this observation, luciferase activity in SPlucTg mice was detected only in the testis of male mice but not in female mice (founder, F1 and F2). […]
Based on this observation, we tested whether we could observe luciferase activity during mouse liver regeneration after injury. […] Importantly, the mouse liver injury and luciferase activity monitored by in vivo imaging is CCl4 dose-dependent, which provides a novel basis for testing compound-induced tissue injury/toxicity.

cancer cells = assay: cell death of treated cancer cells; assay type: cell-based
human survivin promoter [2] = assay: luciferase activity assay in cancer cell clones stably transfected with pNeoHScyc4.08-luc; assay type: cell-based
Procedure: Methods for transfection, G418 selection, single clone isolation and amplification: Cells were first tested for G418 resistance with a series of G418 concentrations. For transfection, cells were seeded in a 6-well cell culture plate, one day before transfection, to a cell concentration in which cell would grow into 40-70% confluence on the second day for transfection. Cells were transfected with the Sal I-linearized pNeoHScyc4.08-luc or pNeoHS4.04-luc using LIPOFECTAMINE™ 2000 (INVITROGEN). Briefly, 1-2 μg (dependent on cell transfection efficiency) of the linearized plasmid DNA in 100 μl serum-free DMEM were mixed with 1.5-3 μl Lipofectamine™ 2000 in 100 μl serum-free DMEM in a 1.5-ml tube for each well of 6-well plates. After incubation at room temperature for 20-25 minutes, the DNA/Lipofectamine™ 2000 mixture was added to each well containing 500 μl serum-free DMEM medium in the 6-well plate. […]
Methods for measuring luciferase activity and isolation of the correct cell clones: For luciferase assays, the Luciferase Reporter Assay System (PROMEGA) was used. […] Luciferase activity for each cell clones was determined every 4-5 sub-culture/passing. […]
Therefore, we used Hedamycin as a positive control to test our genetically modified cancer cell models. […] After cells were treated with 10 nM hedamycin for 16-24 hours, cells were lysed and luciferase activity was measured as described above. […]

survivin [3] = assay: survivin expression and survivin promoter activity in cancer cells (earlier work); assay type: cell-based, human; conditions: binds to the survivin promoter
human survivin promoter [4] = assay: in vivo luciferase imaging of castrated SPlucTg male mice after androgen treatment; set-up: species or system mouse; conditions: testosterone pills imbedded 14 days after castration, seen on Day 11 and Day 14 post pill
From the text: FIG. 19 is a photographic representation (obtained using the XENOGEN IVIS® in vivo Imaging System) of transient turn-on of survivin promoter activity by imbedding testosterone pills in castrated SPlucTg mice: Testosterone pills were imbedded in the back of the neck of SPlucTg mice (an example shown here is the F1 5556m derived from 5196m founder) 14 days after castration (prostate tissue shrinking to the minimal size by apoptosis in the 14 days). After testosterone pill implantation, luciferase activity was monitored using in vivo imaging.
Generation of SPlucTg mice: The targeting construct, pHScyc4.08-luc, was digested with Sal I and Sac I to isolate the 8.5 kb transgene cassette (HScyc4.08-luc) from the bacterial plasmid backbone (see FIG. 2). […] Cesium chloride-purified HScyc4.08-luc DNA was microinjected into the pronuclei of day-0.5 embryos of C57BL/6 mice. Injected embryos were implanted into the oviducts of pseudo-pregnant female Swiss Webster mice. […]
as §1

survivin [5] = conditions: cancer cells; reference 15; cited from earlier work

In the case of ClC(Cl)(Cl)Cl [CCl4, carbon tetrachloride], the “dose dependence of mouse liver injury and luciferase activity” value (human survivin promoter [1]; intraperitoneal CCl4, 50, 100, 200, 300 μl/25 g) is reported as “dose-dependent” and the “luciferase activity during liver regeneration by in vivo imaging” value (human survivin promoter [1]; intraperitoneal injection of 10% CCl4 in corn oil, 50-300 μl/25 g, Day 1-6) is reported as “strong luciferase activity”.

With CCOc1ccc(-c2nc3ccc(-c4nc5ccc(N6CCN(C)CC6)cc5[nH]4)cc3[nH]2)cc1 [Hoechst33342] the cell death (cancer cells; 500 nM for 16-24 hours) was “does not result in significant cell death”, the survivin promoter/luciferase activity (human survivin promoter [2]; 500 nM Hoechst33342 for 16-24 hours, A549, 2008, HCT116, PC-3 clones with pNeoHScyc4.08-luc (FIGS. 9-12)) was “upregulates survivin promoter/luciferase activity” and the “survivin promoter activity and endogenous survivin gene expression” value (survivin [3]) was “upregulates the survivin promoter activity and endogenous survivin gene expression”.

In the case of C[C@]12CC[C@H]3[C@@H](CCC4=CC(=O)CC[C@@]43C)[C@@H]1CC[C@@H]2O [testosterone], the “luciferase activity (survivin promoter activity) by in vivo imaging” value (human survivin promoter [4]) is reported as “Transient induction of survivin promoter activity” and the “luciferase activity (survivin promoter activity) by in vivo imaging” value (human survivin promoter [4]; listed as androgen) is reported as “transient luciferase activity”.

For Cc1cc2c(c3oc(C4(C)OC4C4OC4C)cc(=O)c13)C(=O)c1c(O)c(C3CC(C)(N(C)C)C(O)C(C)O3)cc(C3CC(N(C)C)C(O)C(C)O3)c1C2=O (stereo not shown) [hedamycin], the cell death (cancer cells; 10 nM for 16-24 hours) is given as “do not show significant cell death”, the “survivin expression and survivin promoter activity” value (survivin [5]) is given as “inhibits survivin expression and downregulates survivin promoter activity” and the luciferase activity (human survivin promoter [2]; 10 nM hedamycin for 16-24 hours, A549, 2008, HCT116, PC-3 clones with pNeoHScyc4.08-luc (FIGS. 5-8)) is given as “significantly inhibited”.
